{"source": "patent US7816560B1", "about": "“Long chain n-alkyl compounds and oxa-derivatives thereof” (Thomas Jefferson University, priority 1999, dated 2010)", "key": {"Hepatitis B virus (HBV)": {"system": "Hepatitis B virus (HBV)", "experiment": "Secretion of enveloped HBV from Hep G2.2.15 cells, antigen capture/PCR assay", "format": "cell-based", "conditions": "Hepatitis B virus, HepG2.2.15, 216 h; Hep G2.2.15 cells, nine days of incubation; read-out: IC 50, secretion of HBV", "from_the_text": "Pairs of wells were used for each concentration point.\n^2IC 50: The concentration of compound that prevented the secretion of 50% of the amount of HBV detected in the medium from wells containing untreated cultures."}, "MDBK cells": {"system": "MDBK cells", "experiment": "Toxicity / cell cytotoxicity in MDBK cells", "format": "cell-based", "conditions": "for % Viability at 10 μM: N-alkyl DNJ at 10 μM; for % Viability at 100 μM: N-alkyl DNJ at 100 μM"}, "[1]": {"molecular_target": "T1, ceramide glucosyl transferase (CerGlcT) (Homo sapiens, UniProt Q16739)", "T1 sequence (Q16739 1-394)": "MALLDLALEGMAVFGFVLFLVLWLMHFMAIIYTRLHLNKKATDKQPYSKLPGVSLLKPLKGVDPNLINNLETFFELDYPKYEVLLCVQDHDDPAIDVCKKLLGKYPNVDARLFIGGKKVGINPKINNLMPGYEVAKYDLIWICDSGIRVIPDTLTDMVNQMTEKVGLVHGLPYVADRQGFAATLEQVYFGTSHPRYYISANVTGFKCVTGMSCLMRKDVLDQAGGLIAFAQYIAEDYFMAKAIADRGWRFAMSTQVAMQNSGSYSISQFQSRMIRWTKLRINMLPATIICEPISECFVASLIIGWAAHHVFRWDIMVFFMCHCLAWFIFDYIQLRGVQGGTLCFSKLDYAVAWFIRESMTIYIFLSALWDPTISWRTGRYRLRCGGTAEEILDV", "experiment": "Inhibition of ceramide glucosyl transferase / glycolipid synthesis", "format": "biochemical", "conditions": "N-alkyl DNJ derivatives"}, "α-glucosidase": {"molecular_target": "α-glucosidase", "experiment": "Inhibition of α-glucosidase", "format": "biochemical", "from_the_text": "The inhibitory activity (IC50) and the cell cytotoxicity (IC50) of various compounds, as well as their effect on α-glucosidase and ceramide glucosyl transferase, are shown in Table 2."}, "BVDV": {"system": "BVDV", "experiment": "BVDV plaque reduction and yield assays in MDBK cells", "format": "cell-based, bovine viral diarrhea virus"}}, "data": [{"compound": "Nc1ccn([C@@H]2CS[C@H](CO)O2)c(=O)n1", "note": "[3TC, reference compound]", "values": [{"measurement": "IC50", "setting": "Hepatitis B virus (HBV)", "result": 5, "unit": "µM"}]}, {"compound": "CCCCCCN1C[C@H](O)[C@@H](O)[C@H](O)[C@H]1CO", "note": "[C6]", "values": [{"measurement": "% Viability at 10 μM", "setting": "MDBK cells", "result": 73, "unit": "%"}, {"measurement": "% Viability at 100 μM", "setting": "MDBK cells", "result": 71, "unit": "%"}, {"measurement": "IC50", "setting": "[1]", "result": 23.8, "unit": "µM"}]}, {"compound": "CCCCCCCCN1C[C@H](O)[C@@H](O)[C@H](O)[C@H]1CO", "note": "[C8]", "values": [{"measurement": "% Viability at 10 μM", "setting": "MDBK cells", "result": 70, "unit": "%"}, {"measurement": "% Viability at 100 μM", "setting": "MDBK cells", "result": 71, "unit": "%"}, {"measurement": "IC50", "setting": "[1]", "result": 16.8, "unit": "µM"}]}, {"compound": "CCCCCCCCCCN1C[C@H](O)[C@@H](O)[C@H](O)[C@H]1CO", "note": "[C10]", "values": [{"measurement": "% Viability at 10 μM", "setting": "MDBK cells", "result": 73, "unit": "%"}, {"measurement": "% Viability at 100 μM", "setting": "MDBK cells", "result": 43, "unit": "%"}, {"measurement": "IC50", "setting": "α-glucosidase; N-alkyl DNJ derivatives", "result": 0.48, "unit": "µM"}, {"measurement": "IC50", "setting": "[1]", "result": 3.1, "unit": "µM"}]}, {"compound": "CCCCCCCCCCCCN1C[C@H](O)[C@@H](O)[C@H](O)[C@H]1CO", "note": "[C12]", "values": [{"measurement": "% Viability at 10 μM", "setting": "MDBK cells", "result": 86, "unit": "%"}, {"measurement": "% Viability at 100 μM", "setting": "MDBK cells", "result": 1, "unit": "%"}, {"measurement": "IC50", "setting": "[1]", "result": 5.2, "unit": "µM"}]}, {"compound": "OC[C@H]1NC[C@H](O)[C@@H](O)[C@@H]1O", "note": "[DNJ, deoxynorjirimycin, reference compound]", "values": [{"measurement": "Inhibitor of α glucosidase", "setting": "α-glucosidase; Yes/No", "result": "Yes"}, {"measurement": "IC50", "setting": "BVDV; MDBK cells, read-out: Anti-viral effect on BVDV in MDBK cells IC50", "result": 20, "unit": "µM"}, {"measurement": "Anti-viral effect on BVDV in MDBK cells", "setting": "BVDV; Yes/No", "result": "Yes"}]}]}
